The values below come from US20250250241A1, “COMPOUND, PREPARATION AND USE THEREOF IN RUBBER BLENDS AND VEHICLE TIRES, AS AN ANTI-AGING AGENT, ANTIOXIDANT, ANTIOXIDANT AND/OR COLORING AGENT” (Continental Reifen Deutschland GmbH, priority 2022, published 2025).

The experiment in a line: Measurement of oxidation induction time (OIT) by DSC. The experiment is classed as physicochemical. The note with it: with liquid polyisoprene LIR-50, DSC; for Time until onset of oxidation (oxidation induction time) at 150° C.: isothermal 150° C., experiments terminated after 900 minutes; for Time until onset of oxidation (oxidation induction time) at 150° C. / Time until onset of oxidation (oxidation induction time) at 165° C.: O2 atmosphere; for Time until onset of oxidation (oxidation induction time) at 165° C.: isothermal 165° C.; for Time until onset of oxidation (oxidation induction time) at 180° C.: isothermal 180° C., O2 atmosphere 50 ml/min. How it is done: Measurement of Oxidation Induction Time (OIT)
The compound of formula III) was investigated under laboratory conditions for its potential protective effect as an aging stabilizer by measurement of the oxidation induction time.
To this end the compounds of formula III) and 6PPD, in each case together with a polymer (liquid synthetic polyisoprene (IR), LIR-50, Kuraray, weight average molecular weight distribution Mw=54 000 g/mol, glass transition temperature Tg=−63° C.), were heated at constant temperature at three different temperatures (180° C.; 165° C.; 150° C.) until onset of oxidation.
Heating to 180° C. was carried out as follows: • Starting temperature 35° C., heating to 170° C. at a heating rate of 20 K/min (kelvin per minute), heating to 180° C. at a heating rate of 1 K/min; purge gas: nitrogen (N2), volume flow 50 ml/min).
The specimen was kept under isothermal conditions at 180° C. under an N2 atmosphere for 5 minutes and the atmosphere was then switched to an O2 atmosphere (volume flow 50 ml/min).
The heating to 165° C. was carried out analogously by first heating to 155° C. at a heating rate of 20 K/min (kelvin per minute) and then heating to 165° C. at a heating rate of 1 K/min.
The heating to 150° C. was carried out analogously by first heating to 140° C. at a heating rate of 20 K/min (kelvin per minute) and then heating to 150° C. at a heating rate of 1 K/min.
Oxidation was determined over one peak using DSC (differential scanning calorimetry).
The time in minutes until oxidation was measured in each case.
A general note: In DSC, transitions show as peaks or steps in heat flow.

On to `CC(C)CC(C)Nc1ccc(Nc2ccccc2)cc1` (stereo not drawn) [Formula 6PPD, N-(1,3-dimethylbutyl)-N′-phenyl-p-phenylenediamine], for which the “Time until onset of oxidation (oxidation induction time) at 150° C.” value is reported as above 900 min, the “Time until onset of oxidation (oxidation induction time) at 165° C.” value is 356 ± 10 min and the “Time until onset of oxidation (oxidation induction time) at 180° C.” value is reported as 116 ± 10 min.
The corresponding values for `CC(C)CC(C)Nc1ccc2c(c1)C(=O)Nc1ccccc1N2` (stereo not drawn) [Formula III), 2-(1,3-dimethylbutylamino)-5,10-dihydro-dibenzo[b,e][1,4]diazepin-11-one] are above 900 min, 459 ± 10 min and 169 ± 10 min.
